Source: patent publication US20220267258A1, “ROBENIDINE ANALOGS AS POTENT ANTIMALARIALS AGAINST DRUG-RESISTANT PLASMODIUM FALCIPARUM” (OREGON HEALTH & SCIENCE UNIVERSITY, priority 2021, published 2022)

Tests used:
P. falciparum strain D6 = experiment: SYBR Green growth inhibition assay, P. falciparum D6; type: cell-based, Plasmodium falciparum; settings: pan-sensitive strain, 72 hr, asynchronous cultures in human erythrocytes; read-out: IC50 D6
Method: The in vitro activity of each compound in the aminoguanidine library was assessed against asynchronous cultures of Plasmodium falciparum parasites replicating within human erythrocytes (Tables 1-3). As the chemical development of robenidine was not discussed in its original publication in 1970^4 and limited structural information is available regarding its mechanism of action,^10 profiling was guided primarily by in vitro potency against the P. falciparum D6 strain cultured in human erythrocytes as described above.
(§1) The following parasite strains were used in this study and obtained through BEI Resources, NIAID, NIH. […] The culture medium used was RPMI-1640, supplemented with 25 mM HEPES buffer, 25 mg/L gentamicin sulfate, 45 mg/L hypoxanthine, 10 mM glucose, 2 mM glutamine, and 0.5% Albumax II (complete medium).^43 Cultures were maintained in a standard low oxygen atmosphere (5% O2, 5% CO2, 90% N2) in an environmental chamber and incubated at 37° C. Cultures were sub-passaged every 3-4 days into a fresh culture flask containing complete media and erythrocytes.
The aminoguanidine series was assessed for in vitro antiplasmodial activity using the fluorescence-based SYBR Green assay described previously by Smilkstein and co-workers.^38 Compounds were evaluated in quadruplicate in flat-bottomed Costar clear 96-well plates (Model #3585). A two-fold serial dilution of each compound was performed across the columns of the test plates starting with 20 μM and ending with a final untreated column to serve as control wells. Asynchronous parasite infected erythrocytes in growth media were added to each well for a total volume of 100 μL, final hematocrit of 2%, and initial parasitemia of 0.2%. […] Test plates were incubated for 72 hr at 37° C. in an environmental chamber with a controlled low oxygen atmosphere (5% O2, 5% CO2, 90% N2). After the incubation period, 100 μL SYBR Green I dye-detergent solution was added to each well, and the plates were incubated at ambient temperature and atmosphere in the dark for at least one hour. Fluorescence was read at 497 nm excitation and 520 nm emission bands using a Spectramax iD3 plate reader. Fluorescence readings were normalized with respect to the untreated control wells representing normal parasite growth and plotted against the logarithm of drug concentration.

P. falciparum Dd2 = experiment: SYBR Green growth inhibition assay, P. falciparum Dd2; type: cell-based, Plasmodium falciparum; settings: multi-drug resistant strain, 72 hr; read-out: IC50 Dd2
Method: (§2) In addition to the drug-sensitive P. falciparum D6 strain, the aminoguanidines were assessed against three drug-resistant strains (Tables 1-3).
as §1
(§3) The aminoguanidine series was assessed for in vitro antiplasmodial activity using the fluorescence-based SYBR Green assay described previously by Smilkstein and co-workers.^38 Compounds were evaluated in quadruplicate in flat-bottomed Costar clear 96-well plates (Model #3585). A two-fold serial dilution of each compound was performed across the columns of the test plates starting with 20 μM and ending with a final untreated column to serve as control wells. Asynchronous parasite infected erythrocytes in growth media were added to each well for a total volume of 100 μL, final hematocrit of 2%, and initial parasitemia of 0.2%. The commercial malaria drugs atovaquone and chloroquine were used as control drugs. Test plates were incubated for 72 hr at 37° C. in an environmental chamber with a controlled low oxygen atmosphere (5% O2, 5% CO2, 90% N2). After the incubation period, 100 μL SYBR Green I dye-detergent solution was added to each well, and the plates were incubated at ambient temperature and atmosphere in the dark for at least one hour. Fluorescence was read at 497 nm excitation and 520 nm emission bands using a Spectramax iD3 plate reader. Fluorescence readings were normalized with respect to the untreated control wells representing normal parasite growth and plotted against the logarithm of drug concentration.

P. falciparum Tm90-C2B = experiment: SYBR Green growth inhibition assay, P. falciparum Tm90-C2B; type: cell-based, Plasmodium falciparum; settings: multi-drug resistant clinical isolate, also atovaquone resistant, 72 hr; read-out: IC50 Tm90-C2B
Method: as §2, §1, §3

P. falciparum A6 = experiment: SYBR Green growth inhibition assay, P. falciparum A6; type: cell-based, Plasmodium falciparum; settings: mutant line resistant to respiratory antagonists, 72 hr; read-out: IC50 A6
Method: as §2, §1, §3

[1] = tested on: human hepatoma derived HepG2 cells; experiment: HepG2 cytotoxicity assay (resazurin); type: cell-based; settings: HepG2, 24 hr drug, 24 hr recovery
Method: In this assay, HepG2 cells were incubated with test compounds for 24 hours, followed by a 24-hour recovery period and subsequent staining to evaluate for cytotoxic effects with resazurin. The ratio of the resulting HepG2 IC50 value to the P. falciparum D6 IC50 value can be considered an ‘in vitro therapeutic index,’ or IVTI.
Compounds were prepared as 10 mM stock solutions in DMSO. […] HepG2 cells were added to each well of flat bottom 96-well tissue culture plates at an initial density of 2×10^4 cells per well, and an initial volume of 160 μL complete medium per well. After an overnight incubation at 37° C. to adhere the cells to the culture plates, 40 μL drug solutions in complete medium were applied to each well at a final concentration range of 0 to 200 μM across each plate. Drugs were tested in triplicate or quadruplicate. The cells were incubated for 24 hours at 37° C. and 5% CO2 with the drug solutions, which were then aspirated and replaced with 200 μL per well of complete medium for an additional 24 hour incubation under the same conditions. To each well was added 20 μL of resazurin (Alamar Blue) in PBS buffer to a final concentration of 10 μM, and the plates were incubated for 3 hours. Fluorescence was measured at 560 nm excitation and 590 nm emission bands using a Spectramax iD3 plate reader. Fluorescence readings were normalized with respect to the untreated control wells and plotted against the logarithm of drug concentration.

Plasmodium yoelii = experiment: modified 4-day Peters test, murine malaria; type: in vivo, mice
Method: In this modified 4-day Peters test,^41 mice were inoculated with parasites from a donor mouse (day 0), and then dosed orally with drugs on each of the subsequent four days (days 1-4). On day 5 of the experiment, the parasitemia for each mouse was determined microscopically by examining methanol-fixed and Giemsa-stained blood smears. The ED50 represents the interpolated dose of a compound at which parasitemia was suppressed to one half that of untreated controls. Similarly, the ED90 represents the dose at which parasitemia is suppressed ten-fold. Mice were considered cured of their infection if no parasites were detected in the blood 30 days from the first drug administration, and the non-recrudescence dose (NRD) represents the lowest dose to achieve a cure.
The in vivo ED50 and ED90 of selected aminoguanidines was measured using a modified 4-day Peters test. Female CF1 mice from Charles River Laboratories were inoculated intravenously with approximately 2.5-5.0×10^4 parasitized erythrocytes (murine malaria P. yoelii, Kenya strain MR4 MRA-428) from a donor mouse (experiment day zero). On the following four days (experiment days 1-4), solutions of the test compounds in PEG-300 (or PEG-300 only for control mice) were administered by oral gavage once daily. […] Parasitemia of each mouse was determined by microscopic examination of Giemsa stained blood smears on day 5. ED50 and ED90 values were assessed by generating dose-response curves relative to untreated controls using Graphpad Prism (v. 8). Mice were considered cured of malarial infection if they maintained 0% parasitemia at experiment day 30. The procedures involved, together with all matters relating to the care, handling, and housing of the animals used in this study, were approved by the Portland VA Medical Center Institutional Animal Care and Use Committee.

[2] = murine microsomal stability; settings: from t1/2, assumed murine hepatic blood flow 90 mL/min/kg
Method: To investigate the relationship between the aminoguanidines' in vivo efficacy and their metabolic properties, the murine microsomal stability of a selection of aminoguanidines was evaluated (Table 6). Robenidine, 16, 21, 1, and the control compound ketanserin were incubated with pooled murine liver microsomes and monitored for degradation by LC/MS/MS for one hour. The concentration vs. time plot for each compound was used to determine its biological half-life (t1/2) and predicted intrinsic clearance (Clint).
Metabolic stability studies of selected aminoguanidines were performed at ChemPartner, Shanghai, China. Compounds were incubated at 37° C. and 1 μM concentration in murine liver microsomes (Corning) for one hour at a protein concentration of 0.5 mg/mL in potassium phosphate buffer at pH 7.4 containing 1.0 mM EDTA. The metabolic reaction was initiated by NADPH and quenched with ice-cold acetonitrile at 15 minute increments up to one hour.

Toxoplasma gondii = settings: cited from earlier work
Babesia microti = settings: oral; cited from earlier work
P. berghei = settings: murine species P. berghei, 1970; cited from earlier work
[3] = oral gavage days 1-4, parasitemia day 5

## N=C(N/N=C/c1ccc(Cl)cc1)N/N=C/c1ccc(Cl)cc1 [Robenidine]
P. falciparum strain D6
  IC50: 324 nM
P. falciparum Dd2
  IC50: 814 nM
P. falciparum Tm90-C2B
  IC50: 1320 nM
P. falciparum A6
  IC50: 410 nM
[1]
  IC50: 30000 nM
Plasmodium yoelii; [3]
  P. yoelii ED50: 1.6 mg/kg/day
  P. yoelii ED90: 4.9 mg/kg/day
Plasmodium yoelii; oral, doses up to 25 mg/kg/day, no parasites at day 30
  P. yoelii NRD (non-recrudescence dose, cure dose): >25 mg/kg/day
[2]
  Predicted Clint: 34.40 mL/min/kg
Toxoplasma gondii
  in vitro IC50: 0.03 µg/mL
Babesia microti
  murine in vivo non-recrudescence dose: 100 mg/kg/day
P. berghei
  activity in vivo: moderate activity
